In one assay the target is T1, XDH (Caulobacter vibrioides, UniProt B8H1Z0).
T1 sequence (B8H1Z0 1-248): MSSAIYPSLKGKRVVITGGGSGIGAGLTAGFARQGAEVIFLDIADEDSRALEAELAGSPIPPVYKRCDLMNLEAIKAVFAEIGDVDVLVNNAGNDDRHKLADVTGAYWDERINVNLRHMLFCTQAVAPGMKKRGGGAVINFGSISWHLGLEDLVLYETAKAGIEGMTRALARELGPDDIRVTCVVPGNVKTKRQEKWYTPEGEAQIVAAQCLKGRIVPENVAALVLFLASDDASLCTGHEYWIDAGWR
Description: NADH formation at […] nm. The class given is biochemical. The conditions noted are these: 10 mM D-xylose, 1 mM NAD+, 37 °C.

The target in a further assay is T2, KGSADH (Caulobacter vibrioides, UniProt A0A0H3C801).
T2 sequence (A0A0H3C801 1-478): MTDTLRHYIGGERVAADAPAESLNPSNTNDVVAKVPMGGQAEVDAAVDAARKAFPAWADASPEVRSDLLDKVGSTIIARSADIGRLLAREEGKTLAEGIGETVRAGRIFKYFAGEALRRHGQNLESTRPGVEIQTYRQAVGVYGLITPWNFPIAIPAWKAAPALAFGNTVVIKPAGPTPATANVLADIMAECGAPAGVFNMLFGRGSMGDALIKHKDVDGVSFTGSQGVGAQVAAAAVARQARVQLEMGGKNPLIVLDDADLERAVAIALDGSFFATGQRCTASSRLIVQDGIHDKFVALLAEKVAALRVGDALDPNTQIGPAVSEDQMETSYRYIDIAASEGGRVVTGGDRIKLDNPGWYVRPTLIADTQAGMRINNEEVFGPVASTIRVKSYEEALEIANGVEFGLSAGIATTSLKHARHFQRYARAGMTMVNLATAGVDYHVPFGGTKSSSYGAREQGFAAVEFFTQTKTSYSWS
The experiment in a line: NADH formation at […] nm. It counts as biochemical.

Another assay deals with T3, laccase (Lac) (Bacillus subtilis, UniProt P07788).
T3 sequence (P07788 1-513): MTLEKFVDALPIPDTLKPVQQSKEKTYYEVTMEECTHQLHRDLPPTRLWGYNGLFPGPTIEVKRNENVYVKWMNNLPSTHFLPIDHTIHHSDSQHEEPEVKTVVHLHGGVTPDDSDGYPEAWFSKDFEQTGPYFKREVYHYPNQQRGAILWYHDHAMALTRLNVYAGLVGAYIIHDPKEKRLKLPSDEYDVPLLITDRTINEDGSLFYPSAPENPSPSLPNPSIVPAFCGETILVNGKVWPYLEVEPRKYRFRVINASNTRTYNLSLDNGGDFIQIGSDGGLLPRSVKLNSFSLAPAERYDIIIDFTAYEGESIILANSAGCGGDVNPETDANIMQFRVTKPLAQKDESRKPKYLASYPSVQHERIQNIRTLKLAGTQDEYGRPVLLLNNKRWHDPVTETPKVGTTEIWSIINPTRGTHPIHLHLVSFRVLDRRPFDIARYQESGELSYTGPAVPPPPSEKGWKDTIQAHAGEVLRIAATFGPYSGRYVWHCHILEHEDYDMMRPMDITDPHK
The experiment in a line: ABTS oxidation at […] nm, whole cells. The class given is cell-based. The conditions noted are these: 5 mM ABTS, 37 °C, pH optimum 5.0; surface-displayed enzyme.

A further assay addresses T4, XylD (Caulobacter vibrioides, UniProt A0A0H3C6H6).
T4 sequence (A0A0H3C6H6 1-591): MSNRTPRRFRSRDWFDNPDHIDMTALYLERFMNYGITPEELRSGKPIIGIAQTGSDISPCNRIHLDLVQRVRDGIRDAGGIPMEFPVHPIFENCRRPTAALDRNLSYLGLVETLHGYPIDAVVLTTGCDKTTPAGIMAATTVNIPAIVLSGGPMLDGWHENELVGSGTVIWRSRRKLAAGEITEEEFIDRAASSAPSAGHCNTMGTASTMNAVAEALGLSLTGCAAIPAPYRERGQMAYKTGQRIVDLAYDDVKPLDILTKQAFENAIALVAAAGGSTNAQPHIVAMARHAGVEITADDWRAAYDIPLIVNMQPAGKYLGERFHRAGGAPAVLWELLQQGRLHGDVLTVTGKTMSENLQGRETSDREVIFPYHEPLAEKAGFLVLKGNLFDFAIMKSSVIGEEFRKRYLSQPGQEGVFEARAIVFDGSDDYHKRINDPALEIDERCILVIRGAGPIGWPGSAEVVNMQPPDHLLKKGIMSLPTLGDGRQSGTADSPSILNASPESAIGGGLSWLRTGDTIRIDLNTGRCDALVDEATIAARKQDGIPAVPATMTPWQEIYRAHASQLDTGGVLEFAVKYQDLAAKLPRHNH
The experiment in a line: semicarbazone assay at […] nm. The class given is biochemical. The conditions noted are these: 37 °C.

The target of another assay is XylC (Caulobacter vibrioides, UniProt A0A0H3C6P8). The experiment in a line: decrease of p-nitrophenol absorbance at […] nm. The conditions noted are these: spontaneous hydrolysis controlled. The class given is biochemical.

Experimental findings from paper PMC11464693 (Nature Communications, 2024) are described below.

XylC, sequence (A0A0H3C6P8 1-289): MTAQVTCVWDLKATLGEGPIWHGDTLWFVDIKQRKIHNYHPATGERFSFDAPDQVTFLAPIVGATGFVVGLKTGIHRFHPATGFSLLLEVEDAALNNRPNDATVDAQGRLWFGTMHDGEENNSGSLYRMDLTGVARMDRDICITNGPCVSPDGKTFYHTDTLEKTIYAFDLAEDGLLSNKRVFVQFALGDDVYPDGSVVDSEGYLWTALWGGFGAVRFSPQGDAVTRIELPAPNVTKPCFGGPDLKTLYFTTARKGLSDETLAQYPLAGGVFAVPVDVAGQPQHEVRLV

`NC(=O)c1ccc[n+]([C@@H]2O[C@H](COP(=O)(O)OP(=O)(O)OC[C@H]3O[C@@H](n4cnc5c(N)ncnc54)[C@H](O)[C@@H]3O)[C@@H](O)[C@H]2O)c1` [NAD^+]: the “NADH formation at 340 nm” value on XDH was “catalyzed by XDH using NAD^+ as coenzyme”; at KGSADH (glutaraldehyde as substrate), “activity of KGSADH by following the rate of NAD^+ reduction”.

`CCn1c(=NN=c2sc3cc(S(=O)(=O)O)ccc3n2CC)sc2cc(S(=O)(=O)O)ccc21` [ABTS, 2,2’-azino-bis (3-ethylbenzothiazoline-6-sulfonic acid)]: the “ABTS oxidation at 420 nm, whole cells” value on laccase (Lac) is “The oxidation activity of E. coli-Lac towards ABTS was calibrated by measuring the absorbance”.

As for `O=C(O)[C@H](O)[C@@H](O)[C@H](O)CO` [D-xylonic acid], the “semicarbazone assay at 250 nm” value on XylD was “D-xylonic acid would be transformed into 2-keto-3-deoxyxylic acid by XylD”.

For `OC1OC[C@@H](O)[C@H](O)[C@H]1O` (stereo partly drawn) [D-xylose], the “NADH formation at 340 nm” value at XDH was “D-xylose is oxidized into D-xylono-lactone and generates NADH catalyzed by XDH”.

For `O=C1O[C@H](CO)[C@H](O)[C@H]1O` [xylono-1,4-lactone], the “decrease of p-nitrophenol absorbance at 405 nm” value on XylC is “To examine the activity of XylC, D-xylono-lactone was used as substrate to produce D-xylonic acid”.

Consider `O=CCCCC=O` [glutaraldehyde], for which the “NADH formation at 340 nm” value at KGSADH (NAD+, substitute substrate) is listed as “monitored by measuring the generation of NADH using analogous glutaraldehyde as substrate”.
